Assay results: patent US9555038B2, “Heterocycle-substituted tetracyclic compounds and methods of use thereof for the treatment of viral diseases” (Merck Sharp & Dohme Corp., priority 2013, dated 2017)
Where two headings read alike, the source gives them in different places.

Key:
[1] = system: HCV replicon 1A; test: Cell-based HCV Replicon Assay A, replicon 1A
Outline: (§1)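 HCV replicon RNA levels are measured by multiplexed real-time RT-PCR, with cyclophilin as internal control, after 3 days of compound exposure. Compounds are tested in 10 serial dilutions starting between 333.3 nM and 1.667 nM, with 5% FBS in the medium.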

[2] = system: HCV replicon 1B; test: Cell-based HCV Replicon Assay B, replicon 1B
Outline: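 Replicon cells seeded in 5% FBS; compounds added 24 h later, then 3 days' incubation. Replicon RNA quantified by real-time RT-PCR with genotype-specific primers/probes (NS5B amplicon for 1b). EC50 = concentration raising CT by 1 over projected baseline.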

[3] = system: HCV replicon 2B; test: Cell-based HCV Replicon Assay A, replicon 2B
Outline: as §1

[4] = system: HCV replicon 1AY93H; test: Cell-based HCV Replicon Assay A, replicon 1AY93H
Outline: as §1

[5] = system: HCV replicon 1AQ30D; test: Cell-based HCV Replicon Assay B, replicon 1AQ30D
Procedure: In an alternate assay (“Replicon Assay B”), 1000 cells were seeded per well in a 384-well collagen coated black plate from Greiner bio-one (Cat #781946) in 5% FBS. Inhibitors of this invention were added at 24 h post-seeding, and the plates were incubated for 3 days. Cells were subsequently lysed with Qiagen lysis buffer (Cat #1062731) to extract the RNA. HCV replicon RNA level was measured by real-time PCR using the RNA-to-CT kit from Applied Biosystem (Cat #4392656) and genotype-specific primers and probes. The amplicon was located within NS5B. The sequence of the PCR primers are as follows: 5B.2F, ATGGACAGGCGCCCTGA (SEQ. ID NO. 1); 5B.2R, […] (SEQ. ID NO. 2); the probe sequence was FAM-labeled CACGCCATGCGCTGCGG (SEQ. ID NO. 3). To detect genotype 1A the primer 1A F, TGCGGAACCGGTGAGTACA and 1A R, […] were used; the probe sequence was FAM-[…].
The real-time RT-PCR reactions were run on ABI PRISM 7900HT or Viia7 Sequence Detection System using the following program: 48° C. for 30 minutes, 95° C. for 10 minutes, 40 cycles of 95° C. for 15 sec, 60° C. for 1 minutes. The 50% effective concentration (EC50) was the drug concentration necessary to achieve an increase in the cycle threshold (CT) of 1 over the projected baseline CT.
Data was obtained for various compounds of the present invention using the methods described in the Example above, and is presented in the table immediately below. Data for replicons 1A, 1AY93H and 2B were obtained using Replicon Assay A and data for replicons 1AQ30D and 1B were obtained using Replicon Assay B.

[6] = read-out: 1A Y93H IC50, replicon 1AY93H
[7] = read-out: 1A Q30D IC50, replicon 1AQ30D
[8] = Hepatitis C virus, read-out: 1A Q30D IC50 (nM), replicon 1AQ30D
[9] = Hepatitis C virus, read-out: 1A Y93H IC50 (nM), replicon 1AY93H

| Compound | IC50 [1] | IC50 [2] | IC50 ([3]; read-out: 2B IC50, replicon 2B) | IC50 [4, 6] | IC50 [5, 7] | IC50 ([1]; Hepatitis C virus) | IC50 ([2]; Hepatitis C virus) | IC50 [5, 8] | IC50 ([3]; Hepatitis C virus, read-out: 2B IC50 (nM), replicon 2B) | IC50 [4, 9] |
| --- | --- | --- | --- | --- | --- | --- | --- | --- | --- | --- |
| CCc1ncc(C2Oc3cc(-c4cnc([C@@H]5CCCN5C(=O)[C@@H](NC(=O)OC)C(C)C)[nH]4)cc(F)c3-c3cc4cc(-c5cnc([C@@H]6C[C@H]7C[C@H]7N6C(=O)C(NC(=O)OC)C6CCOC(C)(C)C6)[nH]5)ccc4n32)s1 (single isomer, unassigned) [Compound 94] | 3 pM | 3 pM | 0.004 nM | 0.0035 nM | 0.045 nM | – | – | – | – | – |
| COC(=O)N[C@H](C(=O)N1CCC[C@H]1c1ncc(-c2cc(F)c3c(c2)OC(c2cnc(-c4ccc(Cl)cc4)s2)n2c-3cc3cc(-c4cnc([C@@H]5CCCN5C(=O)[C@@H](NC(=O)OC)C(C)C)[nH]4)ccc32)[nH]1)C(C)C (single isomer, unassigned) [Compound 53] | – | – | 0.004 nM | 0.0022 nM | – | 1.6 pM | 1 pM | 0.07 nM | – | – |
| COC(=O)N[C@H](C(=O)N1CCC[C@H]1c1ncc(-c2cc(C)c3c(c2)OC(c2cnc(C4CC4)s2)n2c-3cc3cc(-c4cnc([C@@H]5C[C@H]6C[C@H]6N5C(=O)[C@@H](NC(=O)OC)C(C)C)[nH]4)ccc32)[nH]1)C(C)C (single isomer, unassigned) [Compound 203] | – | – | – | – | – | 4.47 pM | 3 pM | 0.654 nM | 0.007 nM | 0.0166 nM |
| CCCc1ncc(C2Oc3cc(-c4cnc([C@@H]5CCCN5C(=O)[C@@H](NC(=O)OC)C(C)C)[nH]4)cc(F)c3-c3cc4cc(-c5cnc([C@@H]6C[C@H]7C[C@H]7N6C(=O)C(NC(=O)OC)C6CCOC(C)(C)C6)[nH]5)ccc4n32)s1 (single isomer, unassigned) [Compound 104] | – | – | 0.004 nM | 0.0041 nM | 0.028 nM | 2.8 pM | 3 pM | – | – | – |
| COC(=O)NC(C(=O)N1[C@@H]2C[C@@H]2C[C@H]1c1ncc(-c2ccc3c(c2)cc2n3C(c3cnc(CC(C)C)s3)Oc3cc(-c4cnc([C@@H]5CCCN5C(=O)[C@@H](NC(=O)OC)C(C)C)[nH]4)cc(F)c3-2)[nH]1)C1C[C@@H](C)O[C@@H](C)C1 (single isomer, unassigned) [Compound 440] | – | – | 0.32 nM | 0.146 nM | 0.967 nM | 2.3 pM | 3.6 pM | – | – | – |
| COC(=O)N[C@H](C(=O)N1CCC[C@H]1c1ncc(-c2cc(F)c3c(c2)OC(c2cncs2)n2c-3cc3cc(-c4cnc([C@@H]5CCCN5C(=O)[C@@H](NC(=O)OC)C(C)C)[nH]4)ccc32)[nH]1)C(C)C (single isomer, unassigned) [Compound 2] | – | – | 2.31 nM | – | – | 3.5 pM | 30 pM | 38.3 nM | – | 6.95 nM |
| CCCOCc1ncc(C2Oc3cc(-c4cnc([C@@H]5CCCN5C(=O)[C@@H](NC(=O)OC)C(C)C)[nH]4)cc(F)c3-c3cc4cc(-c5cnc([C@@H]6CCCN6C(=O)[C@@H](NC(=O)OC)C(C)C)[nH]5)ccc4n32)s1 (single isomer, unassigned) [Compound 500] | 22.5 pM | 18.4 pM | 1.67 nM | 7.79 nM | 16.7 nM | – | – | – | – | – |
| COC(=O)N[C@H](C(=O)N1CCC[C@H]1c1ncc(-c2cc(F)c3c(c2)OC(c2cnc(-c4ccc(F)cc4)s2)n2c-3cc3cc(-c4cnc([C@@H]5CCCN5C(=O)[C@@H](NC(=O)OC)C(C)C)[nH]4)ccc32)[nH]1)C(C)C (single isomer, unassigned) [Compound 31] | – | – | 0.004 nM | 0.0063 nM | – | 1.2 pM | 1 pM | 0.046 nM | – | – |
| COC(=O)NC(C(=O)N1[C@@H]2C[C@@H]2C[C@H]1c1ncc(-c2ccc3c(c2)cc2n3C(c3ncc(C4CC4)s3)Oc3cc(-c4cnc([C@@H]5CCCN5C(=O)[C@@H](NC(=O)OC)C(C)C)[nH]4)cc(F)c3-2)[nH]1)C1C[C@@H](C)O[C@@H](C)C1 (single isomer, unassigned) [Compound 65] | 2.1 pM | – | 0.044 nM | 0.0081 nM | – | – | 3 pM | 0.095 nM | – | – |
